From US20230331707A1, “PROGRAMMED CELL NECROSIS INHIBITOR, PREPARATION METHOD THEREFOR, AND USE THEREOF” (Shanghai Institute of Organic Chemistry, Chinese Academy of …, priority 2020, published 2023)
Like-named read-outs stand apart in the source and are kept apart here.

How the values were obtained:
[1] = test system: MEFs cells expressing RIPK1 S161E mutant; assay: TSZ-induced programmed necrosis in MEFs cells expressing RIPK1 S161E mutant; format: cell-based, mouse
Text: (§1) The adopted biological test protocol was: the effect of compounds on programmed necrosis in MEFs cells (mouse embryonic fibroblasts) with RIPK1 S161E mutation.
(§2) In order to verify the inhibitory effect of the compound of the present invention on the highly activated RIPK1 kinase at the cellular level, MEFs cells stably expressing RIPK1 S161E (simulating the activation state of RIPK1 after phosphorylation) were selected, TNFα-SM164-zVAD (Caspase inhibitor for inhibiting apoptosis) (TSZ) was used in combination to induce programmed cell necrosis, and cell viability was calculated by detecting chemiluminescence values, thereby obtaining the biological activity of the compound in inhibiting programmed necrosis.
(§3) Methods: MEFs cells replenished by RIPK1: WT-RIPK1, S161A-RIPK1 and S161E-RIPK1 were replenished in RIPK1 stable knockout cells respectively. After stable expression and being cultured to logarithmic growth phase, the cells were collected, and centrifuged at 1000 rpm for 5 min. The supernatant was discarded. Cell concentration was adjusted to 5×10^4/mL, and cells were inoculated into 384-well plates with 40 μL per well. Cell culture medium diluted SM164 (100 nM), zVAD (50 μM) and compound, each […], were added to the corresponding wells. After pretreatment at 37° C. for 1 h, 5 μL of cell culture medium diluted TNF (50 ng/mL) was added to each well in the stimulated group and 5 μL of culture medium was added to the control group. […] The unstimulated DMSO control wells (Ctrl) were taken as 100% cell viability. EC50 values of the compounds were calculated using Prism Graphpad statistical software.

FADD−/− Jurkat cells = assay: Inhibition of TNF-induced programmed necrosis of FADD deficient Jurkat cells (Cell Titer-Glo viability); format: cell-based
Text: (§4) The adopted biological assay protocol was: the effect of compounds on programmed necroptosis of TNF-induced FADD (Fas-Associated Death Domain) deficient Jurkat cells and L929 cells.
(§5) In order to verify the inhibitory effect of the compounds of the present invention on programmed cell necrosis at the cellular level, cell types that is closely related to the RIP1 pathway, namely FADD deficient Jurkat cells (human peripheral blood leukemia T cell strain) and L929 cells, were selected. Two different stimulation methods were used: tumor necrosis factor (TNFα) was used alone, or TNFα was used in combination with mitochondria-derived cysteine aspartate activator (SMAC) SM164. Cells viability was calculated by detecting chemiluminescence values, thereby obtaining the biological activity of the compound on the inhibition of programmed cell necrosis.
(§6) Methods: FADD deficient Jurkat cells: FADD deficient Jurkat cells (human peripheral blood leukemia T cell line) were cultured in vitro. After growing to the logarithmic growth phase, the cells were collected, centrifuged at 1000 rpm for 5 min, the supernatant was discarded, and the cell concentration was adjusted to 2.5×10^5/mL. Cells were seeded into 384-well plates, 40 μl per well. 5 μL of SM164 (50 nM) diluted in cell culture medium and 5 μL of each compound were added to the corresponding wells. After pretreatment at 37° C. for 1 h, 5 μL of TNFα (50 ng/mL) diluted in cell culture medium was added to each well of the stimulation group, and 5 μL of the culture medium was added to the control group. The plate was cultured in a cell incubator (37° C., 5% CO2) for 14 h, and […] of Cell Titer-Glo solution was added to each well, then incubated for 30 min at room temperature, and intracellular ATP level was measured by detecting luminescence. The unstimulated DMSO control wells were taken as 100% cell viability. L929 cells: The L929 cells (mouse fibroblasts) were cultured in vitro, digested and diluted to 6.25×10^4/ml, and the cells were seeded into 384-well plates, 40 μl per well. The plate was placed in a cell incubator (37° C., 5% CO2) for 12 hours. 5 μL of SM164 (500 nM) diluted in cell culture medium and 5 μL of each compound were added to the corresponding wells. After pretreatment at 37° C. for 1 h, 5 μL of TNFα (500 ng/mL) diluted in cell culture medium was added to each well of the stimulation group, and 5 μL of the culture medium was added to the control group. After the plate was cultured for 14 h in a cell incubator (37° C., 5% CO2), 15 μl of Cell Titer-Glo solution was added to each well. The plate was incubated at room temperature for 30 min, and intracellular ATP level was measured by detecting luminescence. The unstimulated DMSO control wells were taken as 100% cell viability. EC50 values of the compounds were calculated using Prism Graphpad statistical software.

[2] = test system: MEFs cells expressing RIPK1 WT; assay: TSZ-induced programmed necrosis in MEFs cells expressing RIPK1 WT; format: cell-based, mouse
Text: as §1, §2, §3

L929 cells = assay: Inhibition of TNF-induced programmed necrosis of L929 cells (Cell Titer-Glo viability); format: cell-based, mouse; details: for inhibition of programmed necrosis (in words): mouse-derived L929 cells
Text: as §4, §5, §6

[3] = Liver microsomal stability test, mouse; format: in vitro ADME; details: mouse liver microsomes, NADPH, 37° C.; for half-life at 1 µM: mouse, liver microsomes, read-out: T1/2 (min) Mouse
Text: (§7) The adopted biological test protocol was: testing the half-life of the compound in human- or mouse-derived liver microsomes.
(§8) Liver microsomes contain many enzymes involved in drug metabolism, especially cytochrome P-450, and therefore it is one of the major tissues involved in drug metabolism in living organisms. There are some correlations between the stability of the compound in liver microsomes and the pharmacogenetic stability thereof in vivo. Therefore, the relative stability of compounds in vivo can be roughly predicted by testing the half-life of different compounds in human- or mouse-derived liver microsomes. The specific methods were as follows:
(§9) Methods: 0.75 μL of 0.5 mM samples (compounds to be tested and control verapamil), 9.38 μL of 20 mg/mL liver microsomes (Human and Mouse) were taken and added to 239.88 μL PBS (on ice), and divided into 30 μL/tube samples respectively. The samples were incubated at 37° C. in a constant temperature water bath for 5 min, and then all samples were taken out. At zero-time, control group was added with 90 μL of ice acetonitrile first, and then added with 15 μL of 3 mM NADPH solution sequentially, and incubated at 37° C. in a constant temperature water bath. The corresponding samples were taken out after 5 min, 10 min, 20 min, 30 min and 60 min, respectively, and quenched by adding 90 μL of ice acetonitrile. All samples were centrifuged at 10000 rpm for 10 min, and the supernatants were taken and placed in a liquid phase vial waiting for LC-MS analysis.

[4] = Liver microsomal stability test, human; format: in vitro ADME; details: human liver microsomes, NADPH, 37° C.; for half-life at 1 µM: human, liver microsomes, read-out: T1/2 (min) Human
Text: as §7, §8, §9

[5] = Homo sapiens, Jurkat, 14 h, FADD−/− Jurkat cells, stimulated with TNFα + SM164, read-out: EC50 (μM) FADD−/− Jurkat cells (human) TNFα + SM164
[6] = Mus musculus, L929, L929 cells, stimulated with TNFα + SM164, read-out: EC50 (μM) L929 cells (mouse) TNFα + SM164
[7] = Mus musculus, L929, L929 cells, stimulated with TNFα alone, read-out: EC50 (μM) L929 cells (mouse) TNFα
[8] = FADD−/− Jurkat cells, stimulated with TNFα + SM164, read-out: EC50 (μM) FADD−/− Jurkat cells (human) TNFα + SM164
[9] = L929 cells, stimulated with TNFα + SM164, read-out: EC50 (μM) L929 cells (mouse) TNFα + SM164
[10] = L929 cells, stimulated with TNFα alone, read-out: EC50 (μM) L929 cells (mouse) TNFα
[11] = Homo sapiens, Jurkat, FADD−/− Jurkat cells, stimulated with TNFα alone, read-out: EC50 (μM) FADD−/− Jurkat cells (human) TNFα

| SMILES | EC50 (FADD−/− Jurkat cells; [5]) | EC50 (L929 cells; [6]) | EC50 (L929 cells; [7]) | half-life at 1 µM [3] | half-life at 1 µM [4] | EC50 (FADD−/− Jurkat cells; [11]) | further results |
| --- | --- | --- | --- | --- | --- | --- | --- |
| CN1C(=O)[C@@H](NC(=O)c2n[nH]c(Cc3ccccc3)n2)COc2ccccc21 [GSK2982772, reference compound] | 4 nM | > 10000 nM | 2510 nM | – | – | – | inhibition of programmed necrosis ([1]; 10 μM): only shows weak inhibition; EC50 (FADD−/− Jurkat cells; Homo sapiens, Jurkat, read-out: EC50 (μM) FADD−/− Jurkat cells (human) TNFα): 0.68 nM; inhibition of programmed necrosis ([2]; 10 μM): can effectively inhibit the occurrence of programmed necrosis; inhibition of programmed necrosis (in words) (L929 cells): almost inactive |
| Cn1nc(C(=O)NCc2ccc(-n3cnc4c(N)ncnc43)cc2)cc1Cc1ccccc1 [QY-8-43, N-(4-(6-amino-9H-purin-9-yl)benzyl)-5-benzyl-1-methyl-1H-pyrazole-3-carboxamide] | – | – | – | 23.9 min | 38.5 min | – | EC50 (FADD−/− Jurkat cells; [8]): 17.7 nM; EC50 (FADD−/− Jurkat cells; FADD−/− Jurkat cells, stimulated with TNFα alone, read-out: EC50 (μM) FADD−/− Jurkat cells (human) TNFα): 2.85 nM; EC50 (L929 cells; [9]): 152 nM; EC50 (L929 cells; [10]): 11.1 nM |
| Cn1ncc(C(=O)NCc2ccc(-n3cnc4c(N)ncnc43)cc2)c1Cc1ccccc1 [QY-11-78] | – | – | – | – | – | 0.036 nM | T1/2 (min) Mouse [3]: 23.9 min; EC50 (FADD−/− Jurkat cells; [8]): 0.689 nM; T1/2 (min) Human [4]: 12.6 min; EC50 (L929 cells; [9]): 23.2 nM; EC50 (L929 cells; [10]): 9.87 nM |
| CN1CCN(CCNC(=O)c2ccc3c(c2)ncn3-c2ccc(CNC(=O)c3cnn(C)c3Cc3ccccc3)cc2)CC1 [QY-11-69B] | 6.33 nM | 1.08 nM | 0.563 nM | 46.2 min | 43.3 min | 0.984 nM | – |
| Cn1ncc(C(=O)NCc2ccc(-n3cnc4c(N)nccc43)cc2)c1Cc1ccccc1 [QY-11-77] | 0.838 nM | 0.63 nM | 1.17 nM | – | – | 0.012 nM | inhibition of programmed necrosis ([1]; 600 nM): can significantly inhibit occurrence of programmed necrosis; inhibition of programmed necrosis ([2]; 600 nM): can effectively inhibit the occurrence of programmed necrosis |
| COc1cc2ncn(-c3ccc(CNC(=O)c4cnn(C)c4Cc4ccccc4)cc3)c2cc1OC [QY-11-76] | 0.05 nM | 0.432 nM | 0.0598 nM | – | – | 0.0243 nM | inhibition of programmed necrosis ([1]; 600 nM): can significantly inhibit occurrence of programmed necrosis; activity of inhibition of programmed necrosis compared with GSK2982772 (FADD−/− Jurkat cells; human FADD-deficient Jurkat cells, TNFα alone or in combination with SM164): stronger activity; inhibition of programmed necrosis ([2]; 600 nM): can effectively inhibit the occurrence of programmed necrosis; inhibition of programmed necrosis (in words) (L929 cells): excellently inhibit the occurrence of programmed necrosis |
| CCn1nc(C(=O)NCc2ccc(-n3ccc4c(N)ncnc43)cc2)cc1Cc1ccccc1 [QY-9-33] | 1040 nM | > 10000 nM | > 10000 nM | 11.2 min | 9.6 min | 3.77 nM | – |
| CNC(=O)c1ccc2c(c1)ncn2-c1ccc(CNC(=O)c2cc(Cc3ccccc3)on2)cc1 [QY-6-16, 5-Benzyl-N-(4-(5-(methylcarbamoyl)-1H-benzo[d]imidazol-1-yl)benzyl) isoxazol-3-formamide] | 113 nM | 3350 nM | 2140 nM | 24.8 min | 21.7 min | 8.1 nM | – |
| Nc1ncnc2c1ccn2-c1ccc(CN2CCc3cn(Cc4ccccc4)nc3C2=O)cc1 [QY-9-41] | 234 nM | > 10000 nM | > 10000 nM | 36.5 min | 38.5 min | 21.5 nM | – |
| CCn1nc(C(=O)NCc2ccc(-n3cnc4c(N)ncnc43)cc2)cc1Cc1ccccc1 [QY-9-34] | 3.52 nM | > 10000 nM | 8360 nM | 13.9 min | 14.7 min | 0.416 nM | – |
| CCn1nc(C(=O)NCc2ccc(-n3cnc4cc(C(=O)NC)ccc43)cc2)cc1Cc1ccccc1 [XHJ-4-36] | 42.8 nM | > 10000 nM | 10.7 nM | 10.7 min | 46.2 min | 5.91 nM | – |
| CNC(=O)c1ccc2c(c1)ncn2-c1ccc(CNC(=O)c2nnn(Cc3ccccc3)n2)cc1 [ZSQ-13-36] | 150 nM | 4310 nM | 1110 nM | 99 min | 99 min | 24 nM | – |
| CNC(=O)c1ccc2c(c1)ncn2-c1ccc(CNC(=O)c2noc(Cc3ccccc3)n2)cc1 [QY-7-14, 5-Benzyl-N-(4-(5-(methylcarbamoyl)-1H-benzo[d]imidazol-1-yl)benzyl)-1,2,4-oxadiazol-3-carboxamide] | 180 nM | 4740 nM | 962 nM | 77 min | 13.9 min | 24.3 nM | – |
| Nc1ncnc2c1ncn2-c1ccc(CN2CCc3cn(Cc4ccccc4)nc3C2=O)cc1 [QY-9-50] | 12.1 nM | 2730 nM | 1390 nM | 116 min | 86.6 min | 0.191 nM | – |
| CNC(=O)c1ccc2c(c1)ncn2-c1ccc(CN2CCc3cn(Cc4ccccc4)nc3C2=O)cc1 [QY-8-7] | 37.8 nM | > 10000 nM | 3000 nM | 12.2 min | 46.2 min | 10.8 nM | – |
